Consider nine molecules from PubChem BioAssay (NCI).

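Cultured in 96-well plates, cells were exposed to test compound for 48 hours across five concentrations. Abbreviation: GI50, concentration required for 50% inhibition of growth. TGI is the concentration that stops growth completely.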 Where only a bound is given, the exact number is not on record here.

Holding throughout (experiment): DTP human tumour cell line panel, 48 h
In assay [1] the test system is M19-MEL melanoma.
Assay [2] has as its system CAKI-1 renal.
The test system of assay [3] is SF-539 CNS.
Assay [4] has as its system LXFL 529 NSCLC.
Assay [5] deals with SK-OV-3 ovarian.
In assay [6] the test system is NCI-H460 lung.
For assay [7], the system named is K-562 leukemia.
In assay [8] the test system is SNB-78 CNS.
The test system of assay [9] is DMS 114 small cell lung.
Assay [10] relates to SK-MEL-5 melanoma.
Assay [11] has as its system DLD-1 colon.

In the case of `Cc1cc2ncn(-c3nc4ccccc4nc3C(C#N)S(C)(=O)=O)c2cc1C` (stereo unspecified), the TGI in [1], in assay [2], in assay [3], in [4], in assay [5] and in assay [6] was > 100 µM throughout. Moreover, the TGI in assay [7], in assay [8], in assay [9], in [10] and in assay [11] was > 100 µM in each case.
`N#CC(NNC(=O)Cc1ccccc1)c1cccc(O)c1` (stereo unspecified): the total growth inhibition concentration (TGI) in assay [1], in [2], in assay [3], in assay [4], in assay [5] and in assay [6] was > 100 µM in each case. The total growth inhibition concentration (TGI) in assay [7], in assay [8], in assay [9], in [10] and in assay [11] was > 100 µM each time.
As for `COc1ccc2[nH]c3c(c2c1)[C@H](c1ccccc1)C[C@@H]1C(=O)N(c2ccccc2)C(=O)[C@H]31`, the total growth inhibition concentration (TGI) was > 100 µM in [1]; 71.7 µM in assay [2]; > 100 µM in assay [3]; > 100 µM in assay [4]; 50 µM in assay [5]; 84.1 µM in assay [6]. Also, the concentration for total growth inhibition (TGI) in assay [7] is > 100 µM; in assay [8], > 100 µM; in [9] it was 92.7 µM; in assay [10] it was > 100 µM; in assay [11] it was > 100 µM.
With `O=C1[C@@H]2C(c3ccc(Br)cc3)=NO[C@@H]2C(=O)N1c1ccc(Cc2ccc(N3C(=O)[C@H]4C(c5ccc(Br)cc5)=NO[C@H]4C3=O)cc2)cc1`, the GI50 in assay [1], in [2], in assay [4], in assay [6], in assay [7] and in assay [8] was > 40 µM each time. In addition, in assay [11], the GI50 was > 40 µM. Besides, the total growth inhibition concentration (TGI) was > 40 µM in assay [1]; > 40 µM in assay [2]; > 3.48 µM in assay [3]; > 40 µM in assay [4]; > 3.48 µM in assay [5]; > 40 µM in assay [6]. Moreover, the concentration for total growth inhibition (TGI) is > 40 µM in [7]; > 40 µM in [8]; > 3.48 µM in assay [9]; > 3.48 µM in assay [10]; > 40 µM in assay [11].
As for `COc1ccc(N2C(=O)c3c(c4[nH]c5ccccc5c4c4ccc(C(C)(C)C)cc34)C2=O)cc1`, the TGI in assay [1], in assay [2], in assay [3], in assay [4], in [5] and in assay [6] was > 100 µM each time. In addition, the TGI was > 100 µM in assay [7]; 60 µM in assay [8]; > 100 µM in assay [9]; > 100 µM in assay [10]; > 100 µM in [11].
Consider `O=C(Cc1ccccc1)NN1C(=O)C(Cl)C1c1ccccc1Cl` (stereo unspecified), for which the concentration for total growth inhibition (TGI) in [1], in assay [2], in [3], in assay [4], in assay [5] and in assay [6] was > 100 µM each time. The TGI in assay [7] is > 100 µM; in assay [8] it was > 100 µM; in assay [9], > 88.4 µM; in [10] it was > 100 µM; in assay [11] it was > 100 µM.
Turning to `COC(=O)C(=O)C(C(=O)OC)C(=O)C(=O)Nc1c(C)cccc1C` (stereo unspecified), the concentration for total growth inhibition (TGI) in assay [1], in [2], in [3], in assay [4], in [5] and in [6] was > 100 µM throughout. In addition, the total growth inhibition concentration (TGI) in assay [7], in assay [8], in assay [9], in assay [10] and in [11] was > 100 µM throughout.
Consider `Nc1nc2c(N)cc(C(F)(F)F)cc2nc1-c1ccccc1`, for which the TGI in assay [1], in [2], in [3], in assay [4], in [5] and in [6] was > 100 µM in each case. Besides, the TGI in [7], in assay [8], in assay [9], in [10] and in [11] was > 100 µM throughout.
`COC(=O)C1CC2C=CC=CC(=O)C2(C)C1` (stereo unspecified): the TGI in assay [1], in assay [2], in [3], in assay [4], in assay [5] and in assay [6] was > 100 µM each time. Also, the total growth inhibition concentration (TGI) in assay [7] was > 100 µM; in [8] it was > 100 µM; in assay [9] it was > 100 µM; in [10], > 100 µM; in assay [11], 28.9 µM.

Broadly, the TGI is the concentration giving total growth inhibition. High values mean lower sensitivity of the cells, low ones greater sensitivity of the cells. As a reminder, the GI50 is the concentration that inhibits growth by half.
